Patent publication US20110190235A1, “BORON-CONTAINING SMALL MOLECULES AS ANTIPROTOZOAL AGENTS” (Anacor Pharmaceuticals, Inc., priority 2009, published 2011)
≈ marks a conversion by molar mass, not a printed value. Where two headings read alike, the source gives them in different places. One block for each molecule: values may come before it.

Experiments:
[1] = Pharmacokinetic studies in mice (plasma, brain); assay type: in vivo; details: for CL/F / half-life / Cmax / AUC(0-inf) / AUC(0-t): male, CD-1, mouse; for CL/F: read-out: Oral Clearance Cl/F (converted); for half-life: read-out: t½ (converted); for AUC(0-inf): read-out: Exposure/trapezoid AUC0-inf
Experimental: Male CD-1 mice weighing approximately 25 g received the test article (E19 or 82 or E14 or 69) by either intravenous (IV), oral gavage (OG) or intra-peritoneal (IP) routes. Animals in IV group (6-10 animals, 1-2 per time point) received a single bolus injection of approximately 2 mg/kg of the test article. Animals receiving […], or as 4 repeat doses ([…], 1-2 per time point).
All doses were administered as clear colorless solutions in either: 50% (v/v) PEG400:20% (v/v) ethanol:30% (v/v) carboxymethylcellulose (0.5% w/v in sterile water for injection, WFI), or as in situ sodium salts in 5% (m/v) dextrose:2% (v/v) ethanol in DWI. All dose solutions were delivered at 4 mL/kg. Animals were fasted for at least 4 hours before dosing, and for 2 hours after dosing.
Blood samples and brain tissue were sampled from 1 or 2 animals/timepoint/group immediately before dosing and approximately 0.17, 0.5, 1, 2, 3, 4, 6, 8, 12, 18 and 24 hr after dosing for full pharmacokinetic and tissue analysis, or at 0.5, 2 and 4 hours post dosing to assess early-phase CNS disposition.
Bioanalysis for test article in whole blood, plasma or brain tissue was performed by HPLC with tandem mass spectrometry (LC-MSMS). Whole blood and plasma samples were treated with 3 volumes of either acetonitrile or methanol to precipitate plasma proteins. Treated samples were centrifuged and supernatants removed for analysis. Brain tissues were weighed and homogenized mechanically in the presence of 1 volume of phosphate-buffered saline (PBS). The resulting tissue suspensions were then diluted with a further volume of PBS, and then treated in the same manner as whole blood or plasma.
Extracted samples were assayed for test article by means of LC-MSMS employing reversed-phase chromatography coupled to a triple quadrupole mass spectrometer employing electrospray ionization in the positive ion mode. The analytical column was a Phenomenex Luna 3μ C8 50×2 mm, with an online sample purification step performed on a Phenomenex Synergi 4μ Polar RP 50×2 mm column.
Test articles were eluted using a binary mobile phase gradient comprising 5 mM Ammonium Acetate: 0.1% formic acid in either MeOH or H2O.
Non-compartmental analysis of plasma test article concentration versus time was performed in Microsoft Excel to generate pharmacokinetic parameters including: area under the curve (AUC), clearance (as Cl or Cl/F), volume of distribution (Vdss), half-life (t½), and bioavailability (F).

[2] = Pharmacokinetic studies in rats (plasma, brain, CSF); assay type: in vivo; details: for half-life: read-out: t½ (converted); for Cmax / AUC(0-t) / AUC(0-inf): normalized to 25 mg/kg; for AUC(0-t): read-out: Exposure/trapezoid AUC0-18; for AUC(0-inf): read-out: Exposure/trapezoid AUC0-inf
Experimental: Male Sprague Dawley rats weighing approximately 200 g received test article (E19 or 82) as a single oral gavage (OG) dose of approximately 25 mg/kg (approximately 10 animals per group).
All doses were administered as clear colorless solutions as in situ sodium salts in 5% (m/v) dextrose:2% (v/v) ethanol in DWI. All dose solutions were delivered at 2 mL/kg. Animals were fasted for at least 4 hours before dosing, and for 2 hours after dosing.
Blood and CSF samples and brain tissue were sampled from 1 animal/timepoint/group immediately before dosing and approximately 0.5, 1, 2, 3, 4, 6, 8, 12, 18 and 24 hr after dosing for full pharmacokinetic (plasma and CSF) and tissue (Brain) analysis.

[3] = Kinetic solubility by nephelometric (light scattering) method; assay type: physicochemical; details: phosphate buffered saline, aqueous buffer, kinetic from dmso stock, PBS pH 7.4
Experimental: The kinetic solubilities of compounds were estimated using a nephelometric (light scattering) method. Briefly, compounds were serially diluted in DMSO, followed by dilution in PBS pH 7.4. After incubation, the amount of light scattered by a compound at each concentration was measured. […] At concentrations above the solubility limit, the compound precipitates and the precipitant in the well scatters the light, generating a signal. Higher levels of precipitant in a well scatter more light and produce a stronger signal.
A stock solution of compound (25 mM in DMSO) was prepared, and was serially diluted in DMSO in two-fold increments in a row of a 96 well plate to a lowest concentration of 24 μM. A duplicate plate was prepared by transfer of half of the volume of each well to a new plate. Each well containing DMSO solution of the test compound was then diluted further (1:100) with phosphate buffered saline (pH 7.4) to provide aqueous solutions of compound at the following final concentrations: 250, 125, 62.5, 31.3, 15.6, 7.8, 3.9, 2.0, 1.0, 0.5 and 0.2 μM. All liquid handling stages were performed on a Beckman Coulter Biomek NX Laboratory Automation Workstation. Each compound was diluted and tested in duplicate, providing four separate wells at each test concentration.
The test solutions of compound were incubated at room temperature for 90 minutes and then analyzed using a Thermoskan Ascent nephelometric plate reader. The nephelometer protocol included two steps: first, the plate was shaken for 60 seconds at 1200 rpm, then each well of the plate was read in succession with an 800 ms settling delay between measurements. The total measurement time for a single plate was less than 4 minutes.
The four values (in nephelometric units) obtained for each compound at each concentration were averaged and plotted on a log scale versus concentration.

[4] = L929 cytotoxicity evaluation (resazurin); assay type: cell-based; details: mouse, L929 mouse fibroblast cells; 72 hrs incubation; read-out: Cytotox L-929 IC50
Outline: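 Mouse L929 fibroblasts (1×10^4/mL seeding, attached overnight) were treated 72 h at 37 °C, 5% CO2 with serially diluted compounds in DMSO in D-MEM/10% FBS. Viability read by resazurin fluorescence after 3–4 h (ex 544/em 590 nm); IC50 from sigmoidal fits of single data points.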

[5] = test system: bloodstream-form trypanosome T. brucei brucei 427 strain; experiment: Trypanosoma brucei brucei high-throughput in vitro drug sensitivity assay (resazurin); assay type: cell-based; details: for Selectivity Index (L929 IC50 / T. b. brucei IC50): T. b. brucei vs L929; for IC50: Trypanosoma brucei, 72 hrs incubation
[6] = 8 mg/kg, brain, oral, mice (Table 3a)
[7] = 8 mg/kg, brain, oral, mice, normalized to 25 mg/kg (Table 3a)
[8] = 8 mg/kg, plasma, oral, mice (Table 3a)
[9] = 8 mg/kg, plasma, oral, mice, normalized to 25 mg/kg (Table 3a)
[10] = male, Sprague Dawley, rat, CSF, oral, rats
[11] = male, Sprague Dawley, rat, brain, oral, rats
[12] = male, Sprague Dawley, rat, plasma, oral, rats

- CL/F [1, 6]: 134 mL/min/kg
- half-life [1, 6]: 96 min
- Cmax [1, 7]: 2440 ng/mL
- AUC(0-inf) [1, 7]: 3150 ng·h/mL
- AUC(0-t) ([1]; 8 mg/kg, brain, oral, mice, normalized to 25 mg/kg (Table 3a), read-out: Exposure/trapezoid AUC0-last): 3120 ng·h/mL
- CL/F [1, 8]: 28.8 mL/min/kg
- half-life [1, 8]: 178 min
- Cmax [1, 9]: 3590 ng/mL
- AUC(0-inf) [1, 9]: 15200 ng·h/mL
- AUC(0-t) ([1]; 8 mg/kg, plasma, oral, mice, normalized to 25 mg/kg (Table 3a), read-out: Exposure/trapezoid AUC0-last): 14400 ng·h/mL
Compound: O=C(Nc1ccc2c(c1)B(O)OC2)c1ccc(F)cc1Cl [E14, 2-Chloro-4-fluoro-N-(1-hydroxy-1,3-dihydro-benzo[c][1,2]oxaborol-6-yl)-benzamide]

- half-life ([2]; male, Sprague Dawley, rat, 25 mg/kg, CSF, oral, rats): 186 min
- half-life ([2]; male, Sprague Dawley, rat, 25 mg/kg, brain, oral, rats): 156 min
- CL/F ([2]; male, Sprague Dawley, rat, 25 mg/kg, plasma, oral, rats, read-out: Oral Clearance Cl/F (converted)): 4.35 mL/min/kg
- half-life ([2]; male, Sprague Dawley, rat, 25 mg/kg, plasma, oral, rats): 486 min
- Cmax [2, 10]: 1200 ng/mL
- AUC(0-t) [2, 10]: 3800 ng·h/mL
- AUC(0-inf) [2, 10]: 3900 ng·h/mL
- Cmax [2, 11]: 2500 ng/mL
- AUC(0-t) [2, 11]: 12700 ng·h/mL
- AUC(0-inf) [2, 11]: 12700 ng·h/mL
- Cmax [2, 12]: 12300 ng/mL
- AUC(0-t) [2, 12]: 98300 ng·h/mL
- AUC(0-inf) [2, 12]: 102000 ng·h/mL
- time levels in brain and CSF are above the in vitro MIC ([2]; nominal single oral dose of 25 mg/kg to rats): 4 h
- F (% of IV) ([2]; plasma, oral, rats): 123.0%
- half-life ([1]; 25 mg/kg, brain, oral, mice): 138 min
- CL/F ([1]; 25 mg/kg, plasma, oral, mice): 3.83 mL/min/kg
- half-life ([1]; 25 mg/kg, plasma, oral, mice): 1030 min
- Cmax ([1]; brain, oral, mice, normalized to 25 mg/kg (nominal 25 mg/kg)): 6100 ng/mL
- AUC(0-t) ([1]; brain, oral, mice, normalized to 25 mg/kg, read-out: Exposure/trapezoid AUC0-18): 13100 ng·h/mL
- AUC(0-inf) ([1]; brain, oral, mice, normalized to 25 mg/kg): 13200 ng·h/mL
- Cmax ([1]; plasma, oral, mice, normalized to 25 mg/kg (nominal 25 mg/kg)): 10000 ng/mL
- AUC(0-t) ([1]; plasma, oral, mice, normalized to 25 mg/kg, read-out: Exposure/trapezoid AUC0-18): 70600 ng·h/mL
- AUC(0-inf) ([1]; plasma, oral, mice, normalized to 25 mg/kg): 109000 ng·h/mL
- dose proportionality of brain exposure ([1]; oral delivery to mice): generally dose-proportional increases
- F (% of IV) ([1]; plasma, oral, mice): 26%
Compound: O=C(Nc1ccc2c(c1)B(O)OC2)c1ccc(F)cc1C(F)(F)F [E19, 4-Fluoro-N-(1-hydroxy-1,3-dihydro-benzo[c][1,2]oxaborol-6-yl)-2-trifluoromethyl-benzamide]
- dose proportionality of exposure in plasma, brain and CSF ([2]; rats): increase in a generally proportional manner with dose
- brain concentrations relative to the MIC ([1]; mouse and rat, brain (and CSF)): decrease rapidly to levels below the MIC within a few hours after dosing
- dose proportionality of plasma exposure ([1]; oral delivery to mice): greater than proportional at doses above 20 mg/kg
- plasma PK when administered to rodents ([1]; rodents, plasma): good exposure (AUC and Cmax), promising bioavailability, prolonged half-life, and low clearance

Compound: Cc1ccc(C(=O)Nc2ccc3c(c2)B(O)OC3C)cc1 (stereo not shown) [compound 7, N-(1-Hydroxy-3-methyl-1,3-dihydro-benzo[c][1,2]oxaborol-6-yl)-4-methyl-benzamide]
- solubility at 90 min [3]: 100 µM (≈ 28.1 µg/mL)
- IC50 at 72 h [4]: 5.61 µg/mL (≈ 20 µM)
- Selectivity Index (L929 IC50 / T. b. brucei IC50) [5]: 137
- IC50 ([5]; read-out: T. b. brucei IC50): 146 nM
- IC50 ([5]; read-out: T.b. brucei IC50): 0.041 µg/mL

Compound: CC1OB(O)c2cc(NC(=O)c3ccccc3F)ccc21 (stereo not shown) [compound 8, 2-Fluoro-N-(1-hydroxy-3-methyl-1,3-dihydro-benzo[c][1,2]oxaborol-6-yl)-benzamide]
- solubility at 90 min [3]: 50 µM (≈ 14.3 µg/mL)
- IC50 at 72 h [4]: 5.86 µg/mL (≈ 20.6 µM)
- Selectivity Index (L929 IC50 / T. b. brucei IC50) [5]: 84
- IC50 ([5]; read-out: T. b. brucei IC50): 246 nM
- IC50 ([5]; read-out: T.b. brucei IC50): 0.07 µg/mL

Compound: CC1OB(O)c2cc(NC(=O)c3ccc(Cl)cc3)ccc21 (stereo not shown) [compound 9, 4-Chloro-N-(1-hydroxy-3-methyl-1,3-dihydro-benzo[c][1,2]oxaborol-6-yl)-benzamide]
- solubility at 90 min [3]: 25 µM (≈ 7.54 µg/mL)
- IC50 at 72 h [4]: > 10 µg/mL
- Selectivity Index (L929 IC50 / T. b. brucei IC50) [5]: >208
- IC50 ([5]; read-out: T. b. brucei IC50): 159 nM
- IC50 ([5]; read-out: T.b. brucei IC50): 0.048 µg/mL

Compound: CC1OB(O)c2cc(NC(=O)c3ccc(F)cc3F)ccc21 (stereo not shown) [compound 12, 2,4-Difluoro-N-(1-hydroxy-3-methyl-1,3-dihydro-benzo[c][1,2]oxaborol-6-yl)-benzamide]
- solubility at 90 min [3]: 100 µM (≈ 30.3 µg/mL)
- IC50 at 72 h [4]: > 10 µg/mL
- Selectivity Index (L929 IC50 / T. b. brucei IC50) [5]: >123
- IC50 ([5]; read-out: T. b. brucei IC50): 267 nM
- IC50 ([5]; read-out: T.b. brucei IC50): 0.081 µg/mL

Compound: CC1OB(O)c2cc(NC(=O)c3ccc(F)cc3Cl)ccc21 (stereo not shown) [compound 13, 2-Chloro-4-fluoro-N-(1-hydroxy-3-methyl-1,3-dihydro-benzo[c][1,2]oxaborol-6-yl)-benzamide]
- solubility at 90 min [3]: > 200 µM
- IC50 at 72 h [4]: 2 µg/mL (≈ 6.26 µM)
- Selectivity Index (L929 IC50 / T. b. brucei IC50) [5]: 47
- IC50 ([5]; read-out: T. b. brucei IC50): 135 nM
- IC50 ([5]; read-out: T.b. brucei IC50): 0.043 µg/mL

Compound: CC1OB(O)c2cc(NC(=O)c3ccccc3Br)ccc21 (stereo not shown) [compound 14, 2-Bromo-N-(1-hydroxy-3-methyl-1,3-dihydro-benzo[c][1,2]oxaborol-6-yl)-benzamide]
- solubility at 90 min [3]: 100 µM (≈ 34.6 µg/mL)
- IC50 at 72 h [4]: 1.67 µg/mL (≈ 4.83 µM)
- Selectivity Index (L929 IC50 / T. b. brucei IC50) [5]: 39
- IC50 ([5]; read-out: T. b. brucei IC50): 124 nM
- IC50 ([5]; read-out: T.b. brucei IC50): 0.043 µg/mL
